In patent US5426111A, “[Alkoxy-, alkenyloxy-, alkynyloxy-, and phenylmethyloxyalkoxycycloalkyl or alkoxycycloheteroalkyl]naphtho[2,3-c]furan-1(3H)-one inhibitors of 5-lipoxygenase” (Abbott Laboratories, priority 1994, dated 1995):

Test system: LTB4 biosynthesis
Assay: Calcium ionophore-induced LTB4 biosynthesis in human whole blood
Assay type: cell-based
Conditions: @ 100 nm; human heparinized whole blood, calcium ionophore A23187 challenge, LTB4 by radioimmunoassay
Protocol: Inhibition of leukotriene biosynthesis was evaluated in an assay, involving calcium ionophore-induced LTB4 biosynthesis expressed human whole blood. Human heparinized whole blood was preincubated with test compounds or vehicle for 15 min at 37° C. followed by calcium ionophore A23 187 challenge (final concentration of 8.3 μM) and the reaction terminated after 30 min by adding two volumes of methanol containing prostaglandin B2 as an internal recovery standard. The methanol extract was analyzed for LTB4 using a commercially available radioimmunoassay.

COC1(/C=C/COc2ccc3c(-c4ccc(F)cc4)c4c(cc3c2)C(=O)OC4)CCOCC1 [Example 1, 4-(4-fluorophenyl)-7-[3-(4-methoxytetrahydro-2H-pyran-4-yl)-2-propenyloxy]naptho[2,3-c]furan-1(3H)-one]
inhibition of leukotriene biosynthesis: 55%
